The values below come from ChEMBL document CHEMBL5620418.

The source made the active and inactive calls. The calls are words filed in the database; no cut-off is given here.

The assay relates to Mus musculus. As to the kind of experiment: Inhibition of morphine-induced intestinal propulsion function in mouse assessed as charcoal propulsion length at 10 mg/kg, ip by charcoal gavage and intestinal motility assays. It counts as functional, organism-based.

Consider `COC(=O)/C=C/C(=O)N[C@@H]1CC[C@@]2(O)[C@H]3Cc4ccc(O)c5c4[C@@]2(CCN3CC2CC2)[C@H]1O5`, for which the inhibition result is “Active”.
